Data reported in US20130267422A1, “COMPOSITION FOR CONTROLLING PLANT DISEASES COMPRISING 3-PENTANOL AS EFFECTIVE COMPONENT” (Korea Research Institute Of Bioscience And Biotechnology, priority 2010, published 2013).

Legend:
Format in all cases: in vivo
cucumber mosaic virus = experiment: ISR against naturally occurring cucumber mosaic virus disease under field conditions; conditions: pepper, three months after final transplantation, versus control group
Description: (§1) FIGS. 5A through 5C illustrate the effect of 3-pentanol on ISR against naturally occurring plant diseases under field conditions. FIG. 5A illustrates the effect of 3-pentanol on cucumber mosaic virus (CMV) disease three months after the treatment, FIG. 5B illustrates the symptoms of the viral disease (the photographic image was taken three months after the naturally occurring plant disease), and FIG. 5C illustrates the effect of 3-pentanol on bacterial leaf spot disease three months after treatment. The positive control group plant was treated with 0.5 mM BTH. The disease occurrence rate (i.e., 0 to 5) as an indicator of ISR was measured three months after transplantation (i.e., 0: no symptoms; 5: severe symptoms of necrosis).
(§2) 3-Pentanol, having shown ISR properties, was used for subsequent direct applications. Pepper seeds were purchased from Heungnong Jongmyo (breed; Bugang). The surface of the seeds were sterilized for 5 minutes using 1% sodium hypochlorite and rinsed with sterilized water for 5 min. The surface sterilized seeds were allowed to germinate on MS medium containing an appropriate amount of moisture. […] The disease occurrence rate was determined based on comparison and observation at 10 day intervals until Day 40. The severity of symptoms was scored as in Yang et al. 2009, Plant Pathol. […]

[1] = test system: bacterial leaf spot disease; experiment: ISR against naturally occurring bacterial leaf spot disease under field conditions; conditions: pepper, three months after final transplantation
Description: as §1, §2

aphids = experiment: Aphid infestation of cucumber, naturally occurring aphids; conditions: 1 mM soil drench, 34 dps
Description: FIGS. 8A and 8B illustrate that 3-pentanol confers induced resistance against aphids in cucumber: (a), Nymph number; (b), Adult number. Bars represent the mean±SE (sample size, n=12 replications per treatment).
Cucumber plants (Cucumis sativus L. cv. backdadagi) were cultivated in an open field under natural conditions. For greenhouse experiments, seeds were directly planted in pots containing soilless medium (Punong Co. Ltd., Gyeongju, Korea) in a 24 hole plug tray under greenhouse condition. The germinated seedlings were transplanted into large pots (diameter=30 cm; height=30 cm). Chemical treatments to elicit induced resistance in cucumber were carried out. Briefly, the 14 day old cucumber seedlings were treated by direct drench application of 50 mL solution of 1 mM 3-pentanol. 3-pentanol bought from Sigma-Aldrich Co. was dissolved in distilled water before application. Treatments with 1 mM benzothiadiazole (BTH) and water were used as positive and negative controls, respectively.
For pathogen challenge, a culture of the compatible bacterial pathogen Pseudomonas syringae pv. lachrymans (OD600=1 in 10 mM MgCl2) was spray-challenged on cucumber leaves until run-off at 7 days after the drench application of chemicals to roots at 21 days after seeding. The severity of symptoms was scored from 0 to 5 as follows: 0, no symptoms; 1, less than 20% diseased area; 2, 21%-40% diseased area; 3, 41%-60% diseased area; 4, 61%-80% diseased area; and 5, more than 81% diseased area of the entire leaf Bacterial pathogens were cultured overnight at 28° C. in King's B medium supplemented with the appropriate antibiotics (100 μg/mL). As a positive control, roots were treated with 1 mM BTH. […] To investigate whether the 3-pentanol elicited plant immunity to aphid feeding, numbers of naturally occurring aphids (in 2011, Daejeon, Korea) were counted. Application of 1 mM BTH was used as a positive control. The total numbers of nymph and adult aphids were counted at 34 days after seeding. The experiments were repeated with similar results.

PR1 and PR4 genes = experiment: Expression analysis of resistance genes by qRT-PCR; conditions: pepper leaf, six hours after inoculation of pathogen
Description: FIGS. 3A through 3D illustrate expression of the defense-related genes PR1 and PR4 induced by 3-pentanol following inoculation of pathogen to pepper. Expression of the defense signal transduction related genes PR1 and PR4 at 10 dpt (FIG. 3A), 20 dpt (FIG. 3B), 30 dpt (FIG. 3C), and 40 dpt (FIG. 3D) was determined by quantitative RT-PCR. Relative RNA levels were calibrated and normalized to the level of CaActin mRNA. The samples were collected 6 hours post inoculation of pathogen. The positive control group plant was treated with BTH.
Expression of PR1 and PR4 genes related to the disease resistance of pepper were examined based on quantitative real time-polymerase chain reaction (qRT-PCR). The sequences of the primers used are as follows.
Following bacterial exposure to the backside of a pepper leaf, the pepper leaf was cut using scissors at 0 hours and at 6 hours and stored in liquid nitrogen. RNA isolation began with the pepper leaf being ground in liquid nitrogen using a mortar and pestle, The RNA was then extracted from the pepper leaf by using TRIzol Reagent (Invitrogen Life Technologies). […]

[2] = test system: Pseudomonas syringae pv. lachrymans; experiment: Angular leaf spot disease severity in cucumber; conditions: 1 mM drench, 28 days post seeding, 7 days after spray-challenge
Description: FIG. 7 illustrates induction of systemic resistance by 1 mM 3-pentanol against Pseudomonas syringae pv. lachrymans. The severity of symptoms was scored from 0 to 5 as follows: 0, no symptoms; 1, yellowish color; 2, chlorosis only; 3, partial necrosis and chlorosis; 4, necrosis of the inoculated area and expanded chlorosis; and 5, complete necrosis of the inoculated area. Disease severity of cucumber treated with 3-pentanol was assessed 7 days after infection with P. syringae pv. lachrymans. Water and 1 mM BTH were used as negative and positive controls, respectively. […] Error bars indicate the standard error (n=16). […]
For pathogen challenge, a culture of the compatible bacterial pathogen Pseudomonas syringae pv. lachrymans (OD600=1 in 10 mM MgCl2) was spray-challenged on cucumber leaves until run-off at 7 days after the drench application of chemicals to roots at 21 days after seeding. The severity of symptoms was scored from 0 to 5 as follows: 0, no symptoms; 1, less than 20% diseased area; 2, 21%-40% diseased area; 3, 41%-60% diseased area; 4, 61%-80% diseased area; and 5, more than 81% diseased area of the entire leaf Bacterial pathogens were cultured overnight at 28° C. in King's B medium supplemented with the appropriate antibiotics (100 μg/mL). […] The total numbers of nymph and adult aphids were counted at 34 days after seeding. […]

[3] = test system: Xanthomonas axonopodis pv. vesicatoria; experiment: ISR under field conditions, bacterial spot disease in pepper; conditions: for disease level (ISR against bacterial spot disease): 1 mM 3-pentanol; for resistance to the disease (bacterial spot): additional 3-pentanol treatment
Description: FIGS. 2A and 2B illustrate the effect of 3-pentanol on plant ISR against Xanthomonas axonopodis pv. vesicatoria under field conditions at different time points. The ISR effect of 3-pentanol was measured on Day 10, Day 20, Day 30, and Day 40 after seedling transplantation. The positive control plant was treated with 0.5 mM BTH. The disease occurrence rate (i.e., 0 to 5) as an indicator of ISR was measured on Day 10 following inoculation of pathogen.
3-Pentanol, having shown ISR properties, was used for subsequent direct applications. Pepper seeds were purchased from Heungnong Jongmyo (breed; Bugang). The surface of the seeds were sterilized for 5 minutes using 1% sodium hypochlorite and rinsed with sterilized water for 5 min. The surface sterilized seeds were allowed to germinate on MS medium containing an appropriate amount of moisture. Germinated seeds, without m having any contamination, were planted in a 50-hole pot (28×54×6 cm) filled with soil for horticultural use (Punong Co., Ltd, Korea) and cultivated for six weeks in a greenhouse at 20 to 30° C. Six weeks after seeding and upon growth of seven to eight main leaves, 1 mM 3-pentanol was diluted to a volume of about 3 liters with sterilized water and poured into the 50-hole pot dish. In order to have effective soaking of the immersion solution in the soil and roots of the plant, immersion was carried out over about 24 hours. After 24-hour immersion, the young pepper plants were transplanted into a field (i.e., Chungyong-Li, Gaduk-Myon, Chungwon-Gun, Chungchongbuk-Do, South Korea 36°32′27.26″ North and 127°33′07.81″ East). The burrow to burrow distance was 1.2 m and the field was about 12.5 m to ensure the treatment areas were evenly mixed with each other. Twenty days after the final transplantation into the field, a secondary application of 1 mM 3-pentanol diluted to a volume of about 3 liters with sterilized water, was applied as 100 mL irrigation treatments for each. The test method used was as follows: after final transplantation, using a syringe, Xanthomonas axonopodis pv. vesicatoria at the concentration of 10^7 CFU/ml was exposed to the backside of the pepper leaf at intervals of 10 days until Day 40. Responses were then examined seven to ten days after exposure. The bacterial inoculant has been cultured for 48 hours at 30° C. after adding antibiotics of Rifampicin (100 μg/ml) to a solid medium. The control group received zero treatment and the treatment group received four applications. The disease occurrence rate was determined based on comparison and observation at 10 day intervals until Day 40. The severity of symptoms was scored as in Yang et al. 2009, Plant Pathol. […]

[4] = test system: Xanthomonas axonopodis pv. vesicatoria; experiment: ISR screening under greenhouse conditions, bacterial spot disease in pepper; conditions: irrigation, 1 mM, second screening
Description: FIGS. 1A and 1B illustrate the effect of the eighteen different volatile organic compounds from Bacillus amyloliquefaciens IN937a strain on plant ISR against Xanthomonas axonopodis pv. vesicatoria under greenhouse conditions. […] The positive control plant was treated with 0.5 mM benzothiadiazole (BTH). The disease occurrence rate (i.e., 0 to 5) as an indicator of ISR was measured on Day 7 following inoculation of pathogen (i.e., 0: no symptoms; 5: severe symptoms of necrosis).
In order to determine the ISR properties of the previously selected, eighteen different volatile organic compounds from the Bacillus amyloliquefaciens IN937a strain, young pepper was grown for 3 to 4 weeks after seeding and irrigated, with the compounds present, in concentrations of 10 μM or 100 nM in 50 ml volumes. One week following irrigation treatment, the plant was exposed to Xanthomonas axonopodis pv. vesicatoria at a concentration of 10^7 CFU/ml. Symptoms of disease were observed five to seven days later, and the level of disease was measured based on a scale from 0 to 5, as described above. In a second screening, four volatile substances, selected from the first screening, were incorporated into the irrigation treatment at concentrations of 1 mM, 10 μM, 0.1 μM, and 1 nM. After exposure to pathogen, symptoms of disease were observed.

Structure (SMILES)	resistance to cucumber mosaic virus (cucumber mosaic virus)	resistance to bacterial leaf spot disease [1]	number of adult aphids (aphids) [per leaf]	number of aphid nymphs (aphids) [per leaf]	expression level of PR gene (PR1 and PR4 genes; Day 10 after final transplantation)	expression of PR gene (PR1 and PR4 genes; from Day 20 after transplantation)	less symptom severity compared to water control [2] [%]	disease level (ISR against bacterial spot disease) ([3]; ten days after final transplantation)	disease level (ISR against bacterial spot disease) ([3]; twenty days after final transplantation)	resistance to the disease (bacterial spot) ([3]; forty days after final transplantation)	resistance to the disease (bacterial spot) ([3]; thirty days after final transplantation)	resistance to bacterial spot disease in pepper, outcome of screening [4]
c1ccc2snnc2c1 [BTH, benzothiadiazole, reference compound]	almost the same	not different among three treatment groups	0.4	20	–	–	–	–	–	–	–	–
CCC(O)CC [3-pentanol]	significantly increased	not different among three treatment groups	1.0	21	lower expression level of PR gene compared to the control group	the same or higher than that of the control group	24	no difference compared to the control group	less than the control group	higher resistance to the disease compared to the control group	higher resistance to the disease compared to the control group	finally selected
